# Legend:
# Type in all cases: functional
# [1] = tested on: Streptococcus pyogenes; experiment: Antimicrobial activity against Streptococcus pyogenes MTCC 442 by agar cup diffusion method
# [2] = tested on: Pseudomonas aeruginosa; experiment: Antimicrobial activity against Pseudomonas aeruginosa MTCC 1688 by agar cup diffusion method
# [3] = tested on: Streptococcus pyogenes; experiment: Antimicrobial activity against Streptococcus pyogenes MTCC 442 assessed as diameter of growth inhibition zone at 100 ug/ml after 18-24 hr by agar cup diffusion method; conditions: read-out: DIZ
# [4] = tested on: Penicillium; experiment: Antimicrobial activity against Penicillium wild strain by agar cup diffusion method
# [5] = tested on: Candida albicans; experiment: Antimicrobial activity against Candida albicans MTCC 227 assessed as diameter of growth inhibition zone at 100 ug/ml after 48-96 hr by agar cup diffusion method; conditions: read-out: DIZ
# [6] = tested on: Streptococcus pyogenes; experiment: Antimicrobial activity against Streptococcus pyogenes MTCC 442 assessed as diameter of growth inhibition zone at 50 ug/ml after 18-24 hr by agar cup diffusion method; conditions: read-out: DIZ
# [7] = tested on: Klebsiella pneumoniae; experiment: Antimicrobial activity against Klebsiella pneumoniae MTCC 109 assessed as diameter of growth inhibition zone at 25 ug/ml after 18-24 hr by agar cup diffusion method; conditions: read-out: DIZ
# [8] = tested on: Candida albicans; experiment: Antimicrobial activity against Candida albicans MTCC 227 assessed as diameter of growth inhibition zone at 250 ug/ml after 48-96 hr by agar cup diffusion method; conditions: read-out: DIZ
# [9] = tested on: Pseudomonas aeruginosa; experiment: Antimicrobial activity against Pseudomonas aeruginosa MTCC 1688 assessed as diameter of growth inhibition zone at 250 ug/ml after 18-24 hr by agar cup diffusion method; conditions: read-out: DIZ
# [10] = tested on: Staphylococcus aureus; experiment: Antimicrobial activity against Staphylococcus aureus MTCC 96 assessed as diameter of growth inhibition zone at 250 ug/ml after 18-24 hr by agar cup diffusion method; conditions: read-out: DIZ
# [11] = tested on: Klebsiella pneumoniae; experiment: Antimicrobial activity against Klebsiella pneumoniae MTCC 109 assessed as diameter of growth inhibition zone at 50 ug/ml after 18-24 hr by agar cup diffusion method; conditions: read-out: DIZ
# [12] = tested on: Trichophyton rubrum; experiment: Antimicrobial activity against Trichophyton rubrum MTCC 296 assessed as diameter of growth inhibition zone at 25 ug/ml after 48-96 hr by agar cup diffusion method; conditions: read-out: DIZ
# [13] = tested on: Aspergillus clavatus; experiment: Antimicrobial activity against Aspergillus clavatus MTCC 1323 assessed as diameter of growth inhibition zone at 50 ug/ml after 48-96 hr by agar cup diffusion method; conditions: read-out: DIZ
# [14] = tested on: Klebsiella pneumoniae; experiment: Antimicrobial activity against Klebsiella pneumoniae MTCC 109 assessed as diameter of growth inhibition zone at 250 ug/ml after 18-24 hr by agar cup diffusion method; conditions: read-out: DIZ
# [15] = tested on: Streptococcus pyogenes; experiment: Antimicrobial activity against Streptococcus pyogenes MTCC 442 assessed as diameter of growth inhibition zone at 25 ug/ml after 18-24 hr by agar cup diffusion method; conditions: read-out: DIZ
# [16] = tested on: Pseudomonas aeruginosa; experiment: Antimicrobial activity against Pseudomonas aeruginosa MTCC 1688 assessed as diameter of growth inhibition zone at 50 ug/ml after 18-24 hr by agar cup diffusion method; conditions: read-out: DIZ
# [17] = tested on: Escherichia coli; experiment: Antimicrobial activity against Escherichia coli MTCC 443 by agar cup diffusion method
# [18] = tested on: Pseudomonas aeruginosa; experiment: Antimicrobial activity against Pseudomonas aeruginosa MTCC 1688 assessed as diameter of growth inhibition zone at 25 ug/ml after 18-24 hr by agar cup diffusion method; conditions: read-out: DIZ
# [19] = tested on: Staphylococcus aureus; experiment: Antimicrobial activity against Staphylococcus aureus MTCC 96 by agar cup diffusion method
# [20] = tested on: Klebsiella pneumoniae; experiment: Antimicrobial activity against Klebsiella pneumoniae MTCC 109 assessed as diameter of growth inhibition zone at 100 ug/ml after 18-24 hr by agar cup diffusion method; conditions: read-out: DIZ
# [21] = tested on: Staphylococcus aureus; experiment: Antimicrobial activity against Staphylococcus aureus MTCC 96 assessed as diameter of growth inhibition zone at 25 ug/ml after 18-24 hr by agar cup diffusion method; conditions: read-out: DIZ
# [22] = tested on: Candida albicans; experiment: Antimicrobial activity against Candida albicans MTCC 227 assessed as diameter of growth inhibition zone at 50 ug/ml after 48-96 hr by agar cup diffusion method; conditions: read-out: DIZ
# [23] = tested on: Klebsiella pneumoniae; experiment: Antimicrobial activity against Klebsiella pneumoniae MTCC 109 by agar cup diffusion method
# [24] = tested on: Streptococcus pyogenes; experiment: Antimicrobial activity against Streptococcus pyogenes MTCC 442 assessed as diameter of growth inhibition zone at 250 ug/ml after 18-24 hr by agar cup diffusion method; conditions: read-out: DIZ
# [25] = tested on: Aspergillus clavatus; experiment: Antimicrobial activity against Aspergillus clavatus MTCC 1323 assessed as diameter of growth inhibition zone at 250 ug/ml after 48-96 hr by agar cup diffusion method; conditions: read-out: DIZ
# [26] = tested on: Trichophyton rubrum; experiment: Antimicrobial activity against Trichophyton rubrum MTCC 296 assessed as diameter of growth inhibition zone at 250 ug/ml after 48-96 hr by agar cup diffusion method; conditions: read-out: DIZ
# [27] = tested on: Trichophyton rubrum; experiment: Antimicrobial activity against Trichophyton rubrum MTCC 296 assessed as diameter of growth inhibition zone at 50 ug/ml after 48-96 hr by agar cup diffusion method; conditions: read-out: DIZ
# [28] = tested on: Aspergillus clavatus; experiment: Antimicrobial activity against Aspergillus clavatus MTCC 1323 assessed as diameter of growth inhibition zone at 100 ug/ml after 48-96 hr by agar cup diffusion method; conditions: read-out: DIZ
# [29] = tested on: Escherichia coli; experiment: Antimicrobial activity against Escherichia coli MTCC 443 assessed as diameter of growth inhibition zone at 25 ug/ml after 18-24 hr by agar cup diffusion method; conditions: read-out: DIZ
# [30] = tested on: Penicillium; experiment: Antimicrobial activity against Penicillium wild strain assessed as diameter of growth inhibition zone at 25 ug/ml after 48-96 hr by agar cup diffusion method; conditions: read-out: DIZ
# [31] = tested on: Escherichia coli; experiment: Antimicrobial activity against Escherichia coli MTCC 443 assessed as diameter of growth inhibition zone at 250 ug/ml after 18-24 hr by agar cup diffusion method; conditions: read-out: DIZ
# [32] = tested on: Staphylococcus aureus; experiment: Antimicrobial activity against Staphylococcus aureus MTCC 96 assessed as diameter of growth inhibition zone at 100 ug/ml after 18-24 hr by agar cup diffusion method; conditions: read-out: DIZ
# [33] = tested on: Penicillium; experiment: Antimicrobial activity against Penicillium wild strain assessed as diameter of growth inhibition zone at 50 ug/ml after 48-96 hr by agar cup diffusion method; conditions: read-out: DIZ
# [34] = tested on: Candida albicans; experiment: Antimicrobial activity against Candida albicans MTCC 227 assessed as diameter of growth inhibition zone at 25 ug/ml after 48-96 hr by agar cup diffusion method; conditions: read-out: DIZ
# [35] = tested on: Pseudomonas aeruginosa; experiment: Antimicrobial activity against Pseudomonas aeruginosa MTCC 1688 assessed as diameter of growth inhibition zone at 100 ug/ml after 18-24 hr by agar cup diffusion method; conditions: read-out: DIZ
# [36] = tested on: Escherichia coli; experiment: Antimicrobial activity against Escherichia coli MTCC 443 assessed as diameter of growth inhibition zone at 100 ug/ml after 18-24 hr by agar cup diffusion method; conditions: read-out: DIZ
# [37] = tested on: Candida albicans; experiment: Antimicrobial activity against Candida albicans MTCC 227 by agar cup diffusion method
# [38] = tested on: Trichophyton rubrum; experiment: Antimicrobial activity against Trichophyton rubrum MTCC 296 by agar cup diffusion method
# [39] = tested on: Staphylococcus aureus; experiment: Antimicrobial activity against Staphylococcus aureus MTCC 96 assessed as diameter of growth inhibition zone at 50 ug/ml after 18-24 hr by agar cup diffusion method; conditions: read-out: DIZ
# [40] = tested on: Escherichia coli; experiment: Antimicrobial activity against Escherichia coli MTCC 443 assessed as diameter of growth inhibition zone at 50 ug/ml after 18-24 hr by agar cup diffusion method; conditions: read-out: DIZ
# [41] = tested on: Aspergillus clavatus; experiment: Antimicrobial activity against Aspergillus clavatus MTCC 1323 assessed as diameter of growth inhibition zone at 25 ug/ml after 48-96 hr by agar cup diffusion method; conditions: read-out: DIZ
# [42] = tested on: Aspergillus clavatus; experiment: Antimicrobial activity against Aspergillus clavatus MTCC 1323 by agar cup diffusion method
# [43] = tested on: Penicillium; experiment: Antimicrobial activity against Penicillium wild strain assessed as diameter of growth inhibition zone at 100 ug/ml after 48-96 hr by agar cup diffusion method; conditions: read-out: DIZ
# [44] = tested on: Penicillium; experiment: Antimicrobial activity against Penicillium wild strain assessed as diameter of growth inhibition zone at 250 ug/ml after 48-96 hr by agar cup diffusion method; conditions: read-out: DIZ
# [45] = tested on: Trichophyton rubrum; experiment: Antimicrobial activity against Trichophyton rubrum MTCC 296 assessed as diameter of growth inhibition zone at 100 ug/ml after 48-96 hr by agar cup diffusion method; conditions: read-out: DIZ
smiles,measurement,setting,value
O=C(/C=C/c1ccccc1O)C1C(=O)NC(=S)NC1=O,MBC,[1],200 µg/mL
same,MIC,[1],125 µg/mL
same,MBC,[2],250 µg/mL
same,MIC,[2],250 µg/mL
same,zone of inhibition at 100 µg/mL,[3],16 mm
same,MFC,[4],> 1000 µg/mL
same,MIC,[4],> 1000 µg/mL
same,zone of inhibition at 100 µg/mL,[5],22 mm
same,zone of inhibition at 50 µg/mL,[6],15 mm
same,zone of inhibition at 25 µg/mL,[7],12 mm
same,zone of inhibition at 250 µg/mL,[8],24 mm
same,zone of inhibition at 250 µg/mL,[9],19 mm
same,zone of inhibition at 250 µg/mL,[10],19 mm
same,zone of inhibition at 50 µg/mL,[11],13 mm
same,zone of inhibition at 25 µg/mL,[12],18 mm
same,zone of inhibition at 50 µg/mL,[13],19 mm
same,zone of inhibition at 250 µg/mL,[14],17 mm
same,zone of inhibition at 25 µg/mL,[15],13 mm
same,zone of inhibition at 50 µg/mL,[16],13 mm
same,MBC,[17],200 µg/mL
same,MIC,[17],125 µg/mL
same,zone of inhibition at 25 µg/mL,[18],11 mm
same,MBC,[19],500 µg/mL
same,MIC,[19],500 µg/mL
same,zone of inhibition at 100 µg/mL,[20],15 mm
same,zone of inhibition at 25 µg/mL,[21],11 mm
same,zone of inhibition at 50 µg/mL,[22],19 mm
same,MBC,[23],250 µg/mL
same,MIC,[23],200 µg/mL
same,zone of inhibition at 250 µg/mL,[24],17 mm
same,zone of inhibition at 250 µg/mL,[25],22 mm
same,zone of inhibition at 250 µg/mL,[26],22 mm
same,zone of inhibition at 50 µg/mL,[27],21 mm
same,zone of inhibition at 100 µg/mL,[28],20 mm
same,zone of inhibition at 25 µg/mL,[29],13 mm
same,zone of inhibition at 25 µg/mL,[30],18 mm
same,zone of inhibition at 250 µg/mL,[31],17 mm
same,zone of inhibition at 100 µg/mL,[32],17 mm
same,zone of inhibition at 50 µg/mL,[33],19 mm
same,zone of inhibition at 25 µg/mL,[34],17 mm
same,zone of inhibition at 100 µg/mL,[35],17 mm
same,zone of inhibition at 100 µg/mL,[36],16 mm
same,MFC,[37],> 1000 µg/mL
same,MIC,[37],1000 µg/mL
same,MFC,[38],> 1000 µg/mL
same,MIC,[38],> 1000 µg/mL
same,zone of inhibition at 50 µg/mL,[39],13 mm
same,zone of inhibition at 50 µg/mL,[40],15 mm
same,zone of inhibition at 25 µg/mL,[41],18 mm
same,MFC,[42],> 1000 µg/mL
same,MIC,[42],> 1000 µg/mL
same,zone of inhibition at 100 µg/mL,[43],22 mm
same,zone of inhibition at 250 µg/mL,[44],23 mm
same,zone of inhibition at 100 µg/mL,[45],21 mm

# From ChEMBL document CHEMBL3044736, “Synthesis, characterization, solvatochromic properties, and antimicrobial evaluation of 5-acetyl-2-thioxo-dihydro-pyrimidine-4,6-dione-based chalcones” (2013)
